The text below walks through data of publication doi:10.1101/2025.02.01.636040v1 (bioRxiv, 2025).

Data set [1] deals with T1, CHIKVP (Chikungunya virus, UniProt Q8JUX6). The conditions noted are these: 500 μM peptide, 5 μM CHIKVP, 1 hour, LC-MS extracted ion chromatograms.
For data set [2], the target named is T1, CHIKVP. The conditions noted are these: 300 µM CHIKVP, 1.5 mM peptide, 10 min, 298 K, 75 mM deuterated Tris pH 7.5.
The target in data set [3] is T1, CHIKVP. Conditions: 500 µM of each peptide mixed, 5 µM CHIKVP, 10 minutes, LC-MS/UV peak area.

T1 sequence (Q8JUX6 1004-1327 limits assumed): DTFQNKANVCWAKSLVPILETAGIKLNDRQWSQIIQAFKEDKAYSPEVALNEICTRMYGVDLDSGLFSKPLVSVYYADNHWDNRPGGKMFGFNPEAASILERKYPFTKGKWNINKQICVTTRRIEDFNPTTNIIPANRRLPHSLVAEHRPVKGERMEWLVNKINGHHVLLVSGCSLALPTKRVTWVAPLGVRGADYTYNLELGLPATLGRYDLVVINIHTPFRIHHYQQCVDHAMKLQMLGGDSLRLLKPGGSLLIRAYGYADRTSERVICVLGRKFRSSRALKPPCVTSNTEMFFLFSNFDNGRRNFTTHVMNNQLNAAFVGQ

As to DELRLDRAGG/YIFSS, the “cleavage by CHIKVP by LC-MS” value on CHIKVP [1] is “effectively cleaved”. Moreover, the “binding to CHIKVP from 1H-NMR line broadening” value on CHIKVP [2] is on record as “more potent binder of CHIKVP”. The “decrease in peak area” value on CHIKVP [3] was found to be 54.1%.
With VEQLEDRAGA/GIIGGSRR, on CHIKVP [1], the “cleavage by CHIKVP by LC-MS” value is “effectively cleaved”. Also, on CHIKVP [3], the “decrease in peak area” value stood at 52.7%.
